Earlier results in paper PMC3780389 (Experimental neurology, 2012).

Assays:
[1] = system: APP23 transgenic mouse model of AD; details: ref Qing, et al., 2008
[2] = system: 3x-Tg AD mice; details: ref Green, et al., 2008, Hempen and Brion, 1996
[3] = system: hAPP Tg AD mice; details: chronic administration, ref Ricobaraza, et al., 2011

Question: For `CCCC(CCC)C(=O)O` [Valproic acid], which Aβ plaque number [1] is on record?
Answer: significantly reduce Aβ plaque number

Question: What does the source list for `NC(=O)c1cccnc1` [nicotinamide]?
Answer: Thr231-phosphotau [2]: selectively decreases; level of acetylated α-tubulin [2]: increases

Question: For “sodium 4-phenylbutyrate [sodium 4-phenylbutyrate (4-PBA)]”, which Aβ levels [3] is on record?
Answer: decreased Aβ levels
